Results on 1 compound are retold here after paper PMC10094158, “Discovery of a photoactivatable dimerized STING agonist based on the benzo[b]selenophene scaffold” (Chemical Science, 2023).

Broadly, the Kd is the constant that tells how readily two partners part at equilibrium.

Assay [1] concerns the target T1, hSTING^HAQ (Stimulator of interferon genes) (Homo sapiens, UniProt Q86WV6, R71H/G230A/H232R/R293Q).
T1 construct: gene STING1
As to the kind of experiment: thermal shift (DSF), ΔTm. The assay is classed as binding.

In assay [2] the target is T2, hSTING^H232 (Stimulator of interferon genes) (Homo sapiens, UniProt Q86WV6, H232).
T2 construct: gene STING1
T2 sequence (Q86WV6 whole entry, change not shown): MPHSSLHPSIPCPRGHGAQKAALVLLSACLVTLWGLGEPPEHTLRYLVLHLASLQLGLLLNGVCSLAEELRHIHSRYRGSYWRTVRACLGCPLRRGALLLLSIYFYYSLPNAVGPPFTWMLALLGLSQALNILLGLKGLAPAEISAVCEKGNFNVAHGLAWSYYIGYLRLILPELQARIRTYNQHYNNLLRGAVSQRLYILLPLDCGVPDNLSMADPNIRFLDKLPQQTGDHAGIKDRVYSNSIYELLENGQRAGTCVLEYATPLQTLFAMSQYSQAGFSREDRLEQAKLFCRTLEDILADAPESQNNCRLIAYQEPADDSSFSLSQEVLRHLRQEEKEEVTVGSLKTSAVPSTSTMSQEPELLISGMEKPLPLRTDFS
As to the kind of experiment: SPR (KD […]); also ITC (KD […]), DSF and […] Å co-crystal structure. The assay is classed as binding.

T1 sequence (Q86WV6 whole entry R71H/G230A/H232R/R293Q): as the sequence (Q86WV6 whole entry, change not shown) above, with R71H, G230A, H232R, R293Q counted along it

With `COc1cc2[se]c(C(=O)CCC(=O)O)cc2cc1OCCCOc1cc2cc(C(=O)CCC(=O)O)[se]c2cc1OC` [diBSP01], the “thermal shift (DSF), ΔTm” value in assay [1] was found to be 27.0 °C. The compound also had a Kd in assay [2] of 49 nM.
